Reference: ChEMBL document CHEMBL1201862, “PubChem BioAssay data set” (2004)
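Briefly, cells in 96-well plates were exposed to five compound concentrations for 48 h, and endpoints were estimated by linear interpolation. GI50 is the concentration that inhibits growth by half.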 Activity calls are given as the source filed them. Cut-off read from the data, not from the text of the source: active = GI50 up to about 1.1 µM and inactive = higher.

Legend:
Assay in all cases: inhibition of tumour cell growth, NCI panel, 48 h
HOP-62 = system: HOP-62
HCT-15 = system: HCT-15
M14 = system: M14
LOX IMVI = system: LOX IMVI
CAKI-1 = system: CAKI-1
SK-MEL-5 = system: SK-MEL-5
OVCAR-4 = system: OVCAR-4
NCI-H226 = system: NCI-H226
MDA-MB-231 = system: MDA-MB-231
UACC-62 = system: UACC-62
U-251 = system: U-251
OVCAR-3 = system: OVCAR-3
DU-145 = system: DU-145
PC-3 = system: PC-3
UO-31 = system: UO-31
CCRF-CEM = system: CCRF-CEM
HCT-116 = system: HCT-116
MDA-MB-435 = system: MDA-MB-435
UACC-257 = system: UACC-257

SMILES	GI50 (HOP-62)	GI50 (HCT-15)	GI50 (M14)	GI50 (LOX IMVI)	GI50 (CAKI-1)	GI50 (SK-MEL-5)	GI50 (OVCAR-4)	GI50 (NCI-H226)	GI50 (MDA-MB-231)	GI50 (UACC-62)	GI50 (U-251)	GI50 (OVCAR-3)	GI50 (DU-145)	GI50 (PC-3)	GI50 (UO-31)	GI50 (CCRF-CEM)	GI50 (HCT-116)	GI50 (MDA-MB-435)	GI50 (UACC-257)
CCOC(=O)C1=NNC(C(=O)c2ccccc2)C1c1ccccc1 (stereo not given)	12.2 µM (inactive)	2.15 µM	1.9 µM (inactive)	2.32 µM (inactive)	1.83 µM (inactive)	1.8 µM (inactive)	7.4 µM (inactive)	18.1 µM (inactive)	3.94 µM (inactive)	3.18 µM (inactive)	3.39 µM (inactive)	3.42 µM (inactive)	13.2 µM (inactive)	10.4 µM (inactive)	2.01 µM (inactive)	1.64 µM (inactive)	2.52 µM (inactive)	1.91 µM (inactive)	2.61 µM (inactive)
CCOc1cc2c(=O)oc3c(OC)ccc4ccc(c1OC)c2c43	46.5 µM (inactive)	> 100 µM	45.3 µM (inactive)	> 100 µM (inactive)	> 100 µM (inactive)	> 100 µM (inactive)	58.7 µM (inactive)	60 µM (inactive)	14.5 µM (inactive)	> 100 µM (inactive)	34.5 µM (inactive)	> 100 µM (inactive)	> 100 µM (inactive)	> 100 µM (inactive)	> 100 µM (inactive)	> 100 µM (inactive)	6.64 µM (inactive)	> 100 µM (inactive)	> 100 µM (inactive)
O=C1c2ccccc2C2CNC1(O)c1ccccc12 (stereo not given)	> 100 µM (inactive)	> 100 µM	> 100 µM (inactive)	> 100 µM (inactive)	> 100 µM (inactive)	> 100 µM (inactive)	> 100 µM (inactive)	35.1 µM (inactive)	> 100 µM (inactive)	> 100 µM (inactive)	> 100 µM (inactive)	> 100 µM (inactive)	> 100 µM (inactive)	> 100 µM (inactive)	> 100 µM (inactive)	> 100 µM (inactive)	> 100 µM (inactive)	> 100 µM (inactive)	> 100 µM (inactive)
C[C@]12CC[C@@H]3c4ccc(OCC(=O)O)cc4CC[C@H]3[C@@H]1CCC2=O	> 100 µM (inactive)	> 100 µM	> 100 µM (inactive)	> 100 µM (inactive)	> 100 µM (inactive)	> 100 µM (inactive)	> 100 µM (inactive)	> 100 µM (inactive)	> 100 µM (inactive)	> 100 µM (inactive)	> 100 µM (inactive)	> 100 µM (inactive)	> 100 µM (inactive)	> 100 µM (inactive)	> 100 µM (inactive)	1.32 µM (inactive)	> 100 µM (inactive)	> 100 µM (inactive)	> 100 µM (inactive)
COc1cc(Nc2n[nH]c(NS(=O)(=O)c3cc(C)c(Cl)cc3S)n2)cc(OC)c1OC	> 100 µM (inactive)	> 100 µM	> 100 µM (inactive)	> 100 µM (inactive)	> 100 µM (inactive)	> 100 µM (inactive)	> 100 µM (inactive)	> 100 µM (inactive)	> 100 µM (inactive)	> 100 µM (inactive)	> 100 µM (inactive)	> 100 µM (inactive)	> 100 µM (inactive)	> 100 µM (inactive)	> 100 µM (inactive)	> 100 µM (inactive)	> 100 µM (inactive)	> 100 µM (inactive)	> 100 µM (inactive)
